Values of other authors, collected in patent publication US6552014B2, “Methods of inhibiting platelet activation with selective serotonin reuptake inhibitors” (HeartDrug Research, L.L.C., priority 1999, dated 2003).
Where a name gives a salt, the structure may show the parent alone.

Assays:
Conditions in all cases: cited from earlier work
[1] = system: central 2 alpha-adrenergic autoreceptors, and heteroreceptors
[2] = system: serotonin 5-HT2 receptor
[3] = system: serotonin 5-HT3 receptors

Structure (SMILES) | antagonism of central 2 alpha-adrenergic autoreceptors and heteroreceptors, in words [1] | antagonism of serotonin 5-HT2 receptor, in words [2] | antagonism of serotonin 5-HT3 receptors, in words [3]
CN1CCN2c3ncccc3Cc3ccccc3C2C1 (stereo not shown) [Mirtazapine] | potent antagonist | antagonist | antagonist
CCc1nn(CCCN2CCN(c3cccc(Cl)c3)CC2)c(=O)n1CCOc1ccccc1 [Nefazodone, 2-[3-[4-(3-chlorophenyl)-1-piperazinyl]propyl]-5-ether-2,4-dihydro-4-(2-phenoxyethyl)-3H-1,2,4-triazol-3-one monohydrochloride] |  | potent serotonin 5-HT2 receptor antagonist | 
